# Laboratory results published in PMC10537354, “Pyrenebutyrate Enhances the Antibacterial Effect of Peptide-Coupled Antisense Peptide Nucleic Acids in Streptococcus pyogenes” (Microorganisms, 2023).
# Key:
# [1] = tested on: S. pyogenes serotype M49 strain 591; assay: Bacterial killing assay, S. pyogenes; format: cell-based, Streptococcus pyogenes; details: 6 h; for log CFU reduction: S. pyogenes M49 591, 5 µM CPP–PNA, n = 5
# Description: (§1) S. pneumoniae serotype 4 strain TIGR4: after culturing, S. pneumoniae serotype 4 strain TIGR4 was diluted to approximately 10^5 CFU/mL in phosphate-buffered saline (PBS)/THY (95%/5%). S. pyogenes serotype M49 strain 591: An overnight culture of S. pyogenes serotype M49 strain 591 was diluted to approximately 10^5 CFU/mL in PBS/BHI (70%/30%). An amount of 400 µL of the respective bacterial suspension was transferred to a 2 mL polypropylene reaction tube. 4-(1-pyrenyl)-butyric acid (Merck, Darmstadt, Germany) was dissolved to 1 M in DMSO. The solution was stored in the dark and further dilution steps were performed in PBS and 3% DMSO. An amount of 50 µL PyB in PBS/DMSO was added to the bacterial suspension at a final concentration of 50–400 µM and pre-incubated for 10 min at 37 °C and 7 rpm (Rotor SB3, Stuart, Staffordshire, UK). An amount of 50 µL PBS served as a mock control. Following pre-incubation, 50 µL of CPP–PNA solution was added to a final concentration of 5–10 µM or as indicated. An amount of 50 µL molecular grade H2O served as a mock control. The reaction tubes were incubated for another 6 h at 37 °C and 7 rpm. Killing kinetics were observed over 12 h. Samples were collected at time points of 2–12 h following addition of CPP–PNAs, and bacteria were plated on BHI solid medium following serial dilution. Agar plates were incubated for 24 h at 37 °C under a 5% CO2 atmosphere and CFUs were counted. The bacterial count at the beginning of the experiment was 1–3 × 10^5 CFU/mL. Each experiment was conducted at least three times in independent biological replicates.
# [2] = tested on: S. pneumoniae serotype 4 strain TIGR4; assay: Bacterial killing assay, S. pneumoniae; format: cell-based, Streptococcus pneumoniae; details: for Significance of the effect of PyB pre-treatment on antimicrobial efficacy (CFU reduction): S. pneumoniae TIGR4, 10 µM CPP–PNA, 200 µM PyB 10 min pre-treatment vs none, one-way ANOVA; for Change of antibacterial activity in the presence of PyB (non-significant trend): S. pneumoniae TIGR4, 200 µM PyB pre-treatment, related to proportion of positively charged residues of the CPP; for log CFU reduction: S. pneumoniae TIGR4, CPP-anti-gyrA PNA (10 µM in this experiment), without PyB
# Description: as §1, with “The bacterial count at the beginning of the experiment was 1–3 × 10^5 CFU/mL.” left out
# [3] = tested on: S. pyogenes serotype M49 strain 591; assay: In vitro time killing assay (killing kinetics over 12 h); format: cell-based, Streptococcus pyogenes; details: n = 3
# Description: as §1
# Therefore, the kinetics of the antimicrobial activity of K8-conjugated anti-gyrA PNA in the presence of PyB were studied in an in vitro time killing assay in S. pyogenes. Bacteria were treated with 2.5 or 5 μM CPP-antisense PNAs or scrambled control PNAs (Figure 3) with or without pre-treatment with 100 µM PyB. Samples were collected at 2, 4, 6, and 12 h following antisense treatment. CFUs per milliliter were determined by plating of serial dilutions and plotted over time. Untreated bacteria grew by 1–1.5 log CFU over the course of the experiment. […] Following treatment with 2.5 µM K8-conjugated scPNA, no reduction in bacterial counts was observed throughout the experiment. Upon treatment with 5 µM K8-conjugated scPNA, growth was reduced by 0.6 log CFU in comparison to the untreated control, indicating an inhibitory effect of the CPP under these conditions. Overall, pre-treatment with PyB enhanced the activity of K8-anti-gyrA PNA and allowed the eradication of S. pyogenes in vitro.
compound,measurement,setting,value
"O=C(O)CCCc1ccc2ccc3cccc4ccc1c2c34 [PyB, 4-(1-pyrenyl)-butyric acid, reference compound]",Toxicity of PyB (CFU/mL compared to untreated control),"[1]; S. pyogenes 591, 5 × 10^5 CFU/mL, PyB alone 50–200 µM, stated up to 200 µM, n = 4",No significant toxicity
same,Viable counts after treatment with PyB,"[1]; S. pyogenes, 200 µM PyB alone, n = 4",decreased slightly
same,Toxicity of PyB (CFU/mL compared to untreated control),"[2]; S. pneumoniae TIGR4, 8 × 10^5 CFU/mL, PyB alone 50–400 µM, 6 h, stated up to 400 µM, n = 4",unaffected
"KKKKKKKK-eg-attagactgt [K8-anti-gyrA scPNA, Oligolysin (K8) coupled to scrambled control PNA attagactgt, S. pyogenes]",Reduction in bacterial counts throughout the experiment,"[3]; 2.5 µM scrambled control, 12 h",no reduction
same,Growth reduction in comparison to the untreated control,"[3]; 5 µM scrambled control, 12 h course",0.6 log CFU
"KKKKKKKK-eg-tgcatttaag [K8-anti-gyrA PNA, Oligolysin (K8) coupled to anti-gyrA PNA tgcatttaag, S. pyogenes]",log CFU reduction,[1]; after pre-treatment with 100 µM PyB for 10 min,4.8 log CFU
same,log CFU reduction,"[1]; without PyB pre-treatment, PBS/BHI (70%/30%)",3.7 log CFU
same,Time until clearance of S. pyogenes CFUs,"[3]; 5 µM, after pre-treatment with 100 µM PyB",12 h
same,Eradication of S. pyogenes during the course of the assay,"[3]; 2.5 or 5 µM, without PyB, 12 h",not eradicated
same,Viable bacteria over time,"[3]; 2.5 or 5 µM, without PyB, samples at 2, 4, 6, 12 h",constant decrease
"RQIRIWFQNRRMRWRR-eg-tgcattaata [PenArg-anti-gyrA PNA, PenArg coupled to anti-gyrA PNA tgcattaata, S. pneumoniae]",Significance of the effect of PyB pre-treatment on antimicrobial efficacy (CFU reduction),[2]; 6 h,no significant effect
same,Change of antibacterial activity in the presence of PyB (non-significant trend),[2],not enhanced
same,log CFU reduction,[2]; 6 h,3.3 log CFU
"RRRRRRRRR-eg-tgcattaata [R9-anti-gyrA PNA, R9 coupled to anti-gyrA PNA tgcattaata, S. pneumoniae]",Significance of the effect of PyB pre-treatment on antimicrobial efficacy (CFU reduction),[2]; 6 h,no significant effect
same,Change of antibacterial activity in the presence of PyB (non-significant trend),[2],slightly increased
same,log CFU reduction,[2]; 6 h,4 log CFU
"RXRRXRRXRRXRXB-eg ^1 -tgcatttaag [(RXR)4XB-anti-gyrA PNA, (RXR)4XB coupled via eg linker to anti-gyrA PNA tgcatttaag, S. pyogenes]",Significance of the effect of PyB pre-treatment on antimicrobial efficacy (CFU reduction),[2]; 6 h,did not significantly enhance
same,Change of antibacterial activity in the presence of PyB (non-significant trend),[2],not enhanced
